Data on 4 compounds can be found in US4778797A, “Organo-silicon compounds, process for the manufacture of same, and anti-tumor agent comprising the compound” (Sanwa Kagaku Kenkyusho Co., Ltd., priority 1984, dated 1988).

Converted amounts (≈) assume the structure as drawn. Where two headings read alike, the source gives them in different places.

For one data set, the system named is KB cells. Put plainly: Suppression of KB cell proliferation in vitro. Particulars: Homo sapiens, 72 h, 3 days exposure, Trypan Blue dye-exclusion, read-out: KB IC50 (50% inhibition density to tumor cell proliferation). Type of data set: cell-based. The protocol: In a cultivation device (5% CO2, 37° C.), KB cells (1×10^4 cells) were cultivated for 24 hours in a culture tube with 1 ml of Eagle culture medium added 10% ox serum, the used culture medium was thrown away to change with a fresh culture medium (0.9 ml), and then 0.1 ml of a similar culture fluid containing each testing compound prepared by the process as described in the Examples was added to cultivate the same for further 3 days. Thereafter, living cells were dyed with Tripan Blue and measured same through a dye-exclusion method.
A control was treated in a manner similar to the above, except that a culture fluid containing no compound of the invention was added.
50% inhibition density (IC50) to the tumor cell proliferation was decided through the tests between the testing group and the control group to obtain results as shown in following Table 1.

The next data set concerns L-1210 leukemia. Put plainly: Anti-tumor action to L-1210 leukemia. It counts as in vivo, BDF1 female mice. The settings on record: Mus musculus, L1210, oral; for ILS at 250 mg/kg/day: 250 mg/kg/day × 3 (1st, 5th, 9th day); for ILS at 500 mg/kg/day: 500 mg/kg/day × 3 (1st, 5th, 9th day). The procedure: L-1210 leukemia cell (1×10^5 cells) was transplanted in a abdominal cavity of BDF1 female mice (20-21 g, age of about 5 weeks), and each of testing compounds was orally dosed in 250 mg/kg or 500 mg/kg at 1st, 5th and 9th day after the transplantation to check days of life of the mice. [formula]

A further data set concerns Colon-38 carcinoma. Briefly: Anti-tumor action to Colon-38 carcinoma. Particulars: oral, tumor weight at 28th day. Type of data set: in vivo, BDF1 mice. The protocol: 0.02 ml of 10(W/V)% cell suspension prepared from a solid cancer cell (Colon-38 carcinoma) were transplanted under skin of BDF1 mice (20-21 g, age of about 5 weeks), and each of testing compounds was orally dosed to the mice at 1st, 5th and 9th day after the transplantation. A major and minor axes of the cancerous tumor were measured at 11th, 14th, 21st, 25th and 28th day after the transplantation to calcurate volume of the tumor in accordance with the following.
At 28th day from the transplantation, the mice were killed and each of the cancerous tumors was extracted to measure its weight and to determine an inhibitation ratio in comparison with a non-treated control group.

In another data set the test system is B-16 melanoma. Put plainly: Anti-tumor action to B-16 melanoma. The settings on record: oral, tumor weight at 21st day; for inhibition in vivo at 250 mg/kg/day: 250 mg/kg/day × 3. Type of data set: in vivo, BDF1 female mice. The text has this:
B-16 melanoma (1×10^5 cells) was transplanted under skin of BDF1 female mice (age of about 5 weeks), and each of testing compounds was orally dosed at 1st, 5th and 9th day after the transplantation. At 21st day after the transplantation, the mice were killed to measure a weight of the cancerous tumor and to finally determine an inhibition ratio.

A short description of another data set: Acute toxicity. It counts as in vivo, CrJ/CDI female mice. The settings on record: mouse, in vivo; oral gavage, suspended in 0.1% P-1570, female mice, 21 days observation. The procedure:
Each of testing compounds suspended in 0.1% P-1570 was orally and forcedly dosed through a gastric probe to CrJ/CDI female mice (21 to 22 g, age of about 5 weeks). An identification number was given to each mouse, and a weighing and observation on general behavior were carried out just before the dosage and each day after the same. Each of died mice was subjected without delay to an autopsy to check the same, more particularly in detail on enterona. All of living mice were killed at 21st day from the dosage to carry out an autopsy for checking the same, more particularly on entrails.
An LD50 was calculated in accordance with the Leed and Munch's method.
A similar test was carried out on each controls of 1-[2-[(2-trimethylsilylethyl)thio]ethylcarbamoyl]-5-fluorouracil and 1-hexylcarbamoyl-5-fluorouracil (HCFU) which is one of exemplary anti-tumor agents.

In a further data set the test system is Lewis lung carcinoma. Put plainly: Anti-tumor action to Lewis lung carcinoma (primary tumor weight and metastasis). Type of data set: in vivo, BDF1 mice. Particulars: Mus musculus, po, 504 h. An excerpt: Lewis lung carcinoma (1×10^5 cells) was transplanted under skin of right ear of BDF1 mice (age of about 5 weeks), and each of testing compounds was orally dosed 10 times from 1st to 10th day after the transplantation. At 21st day after the transplantation, the mice were killed to measure a weight of the primarly tumor and to extract a lung. The lung was fixed in a conventional manner to count a number of metastasis on cancerous cells with use of a stereomicroscope having a low magnification. An anti-tumor action of each compound was expressed with an inhibition in weight of the primarly tumor and an inhibition of the metastasis.

The next data set deals with MM-46 adenocarcinoma. Briefly: Anti-tumor action to MM-46 adenocarcinoma. Particulars: oral, 250 mg/kg/day × 3 (1st, 5th, 9th day); days to death, testing vs control group. It counts as in vivo, C3H/He female mice. An excerpt:
MM-46 adenocarcinoma (1×10^6 cells) was transplanted under skin of C3H/He female mice (age of about 5 weeks), and each of testing compounds was orally dosed at 1st, 5th and 9th day after the transplantation to check days of life on the mice.
T: days to death on testing group, and
C: days to death on control group.

Setting [1] is: Mus musculus, B16, 504 h, read-out: B-16 melanoma Inhibition ratio.

For orientation: LD50 means the dose at which mortality reaches 50%. For `C[Si](C)(C)CCCSCCCNC(=O)n1cc(F)c(=O)[nH]c1=O` [Example 10, 5-Fluoro-3,4-dihydro-2,4-dioxo-N-[3-[[3-(trimethylsilyl)propyl]thio]propyl]-1(2H)-pyrimidinecarboxamide], the IC50 in the data set with KB cells came out at 10 µg/mL (≈ 27.7 µM). Besides, in the data set with L-1210 leukemia (read-out: L-1210 ILS), the ILS at 250 mg/kg/day was determined as 49% and the ILS at 500 mg/kg/day came out at 111%. Further, in the data set on L-1210 leukemia (read-out: L-1210 Judgement), the ILS at 250 mg/kg/day was 25 to 50% and the ILS at 500 mg/kg/day was at least 100%. Also, the inhibition in vivo at 289 mg/kg/day with Colon-38 carcinoma (Mus musculus, 672 h, 289 mg/kg/day × 3, read-out: colon-38 Inhibition ratio) was 89.5%. In addition, the inhibition in vivo at 125 mg/kg/day in the data set on B-16 melanoma (Mus musculus, B16, 504 h, 125 mg/kg/day × 3, read-out: B-16 melanoma Inhibition ratio) was determined as 38.1%. The inhibition in vivo at 250 mg/kg/day in the data set with B-16 melanoma (setting [1]) was found to be 15.2%. In the data set “Acute toxicity”, the LD50 at 504 h was found to be 2170 mg/kg.
`CC[Si](CC)(CC)CCSCCNC(=O)n1cc(F)c(=O)[nH]c1=O` [Example 2, 5-Fluoro-3,4-dihydro-2,4-dioxo-N-[2-[[(2-triethylsilyl)ethyl]thio]ethyl]-1(2H)-pyrimidinecarboxamide]: the IC50 in the data set with KB cells stood at 13 µg/mL (≈ 34.6 µM). The ILS at 250 mg/kg/day is 19% with L-1210 leukemia (read-out: L-1210 ILS) and under 25% with L-1210 leukemia (read-out: L-1210 Judgement). Moreover, the ILS at 500 mg/kg/day in the data set with L-1210 leukemia (read-out: L-1210 ILS) was 96%; with L-1210 leukemia (read-out: L-1210 Judgement), 50 to 100%. The inhibition in vivo at 300 mg/kg/day was 71.9% in the data set on Colon-38 carcinoma (Mus musculus, 672 h, 300 mg/kg/day × 3, read-out: colon-38 Inhibition ratio) and 47.2% in the data set with B-16 melanoma (Mus musculus, B16, 504 h, 300 mg/kg/day × 3, read-out: B-16 melanoma Inhibition ratio). In addition, the inhibition in vivo at 14 mg/kg/day came out at 0% in the data set on Lewis lung carcinoma (14 mg/kg/day × 10, 21st day, read-out: Inhibition Ratio weight LLC) and 45.2% in the data set with Lewis lung carcinoma (14 mg/kg/day × 10, lung, 21st day, read-out: Inhibition Ratio metastasis). In the data set “Acute toxicity”, this compound gave an LD50 at 504 h of 1540 mg/kg.
For the compound `C[Si](C)(C)CCSCCCNC(=O)n1cc(F)c(=O)[nH]c1=O` [Example 8, 5-Fluoro-3,4-dihydro-2,4-dioxo-N-[3-[[2-(trimethylsilyl)ethyl]thio]propyl]-1-(2H)-pyrimidinecarboxamide], in the data set on KB cells, the IC50 is 7 µg/mL (≈ 20.1 µM). Also, the results for the ILS at 250 mg/kg/day in the data set on L-1210 leukemia (read-out: L-1210 ILS) and with L-1210 leukemia (read-out: L-1210 Judgement) were 27% and 25 to 50%, respectively. For the same compound, the ILS at 500 mg/kg/day with L-1210 leukemia (read-out: L-1210 ILS) was 70%; in the data set with L-1210 leukemia (read-out: L-1210 Judgement), 50 to 100%. The inhibition in vivo at 278 mg/kg/day in the data set with Colon-38 carcinoma (Mus musculus, 672 h, 278 mg/kg/day × 3, read-out: colon-38 Inhibition ratio) was 78%. Also, the inhibition in vivo at 250 mg/kg/day with B-16 melanoma (setting [1]) turned out to be 4.3%. Further, the inhibition in vivo at 13 mg/kg/day in the data set on Lewis lung carcinoma (13 mg/kg/day × 10 + Amputation, 21st day, read-out: Inhibition Ratio weight LLC) stood at 33.3%; with Lewis lung carcinoma (13 mg/kg/day × 10 + Amputation, lung, 21st day, printed in parentheses, read-out: Inhibition Ratio metastasis) it was 18.4%; in the data set with Lewis lung carcinoma (13 mg/kg/day × 10, 21st day, read-out: Inhibition Ratio weight LLC), 0%; with Lewis lung carcinoma (13 mg/kg/day × 10, lung, 21st day, read-out: Inhibition Ratio metastasis) it was 53%. Moreover, the inhibition in vivo at 26 mg/kg/day with Lewis lung carcinoma (26 mg/kg/day × 10 + Amputation, 21st day, read-out: Inhibition Ratio weight LLC) was determined as 64.9%; in the data set on Lewis lung carcinoma (26 mg/kg/day × 10 + Amputation, lung, 21st day, printed in parentheses, read-out: Inhibition Ratio metastasis), 33.6%; in the data set with Lewis lung carcinoma (26 mg/kg/day × 10, 21st day, read-out: Inhibition Ratio weight LLC) it was 26.2%; in the data set with Lewis lung carcinoma (26 mg/kg/day × 10, lung, 21st day, read-out: Inhibition Ratio metastasis) it was 92.5%. Moreover, the median lethal dose (LD50) at 504 h in “Acute toxicity” is 1360 mg/kg.
For `CC(C)[Si](C)(C)CCSCCNC(=O)n1cc(F)c(=O)[nH]c1=O` [Example 5, 5-Fluoro-3,4-dihydro-N-[2-[[2-(isopropyldimethylsilyl)ethyl]thio]ethyl]-2,4-dioxo-1(2H)-pyrimidinecarboxamide], the IC50 in the data set on KB cells was 4 µg/mL (≈ 11.1 µM). The ILS at 250 mg/kg/day in the data set with L-1210 leukemia (read-out: L-1210 ILS) is 51%; in the data set on L-1210 leukemia (read-out: L-1210 Judgement) it was 25 to 50%. Also, the ILS at 500 mg/kg/day in the data set with L-1210 leukemia (read-out: L-1210 ILS) is 106%; in the data set on L-1210 leukemia (read-out: L-1210 Judgement), at least 100%. In the data set on Colon-38 carcinoma (289 mg/kg/day × 3), the “colon-38 Inhibition ratio” value is listed as 89.8%. Further, the “MM-46 adenocarcinoma T/C × 100” value in the data set on MM-46 adenocarcinoma is on record as 162%. Also, the “B-16 melanoma Inhibition ratio” value in the data set on B-16 melanoma (300 mg/kg/day × 3) was determined as 79.7%. Also, the inhibition in vivo at 13.5 mg/kg/day was 34.7% in the data set with Lewis lung carcinoma (13.5 mg/kg/day × 10 + Amputation, 21st day, read-out: Inhibition Ratio weight LLC); 15.4% in the data set on Lewis lung carcinoma (13.5 mg/kg/day × 10 + Amputation, lung, 21st day, printed in parentheses, read-out: Inhibition Ratio metastasis); 0% in the data set on Lewis lung carcinoma (13.5 mg/kg/day × 10, 21st day, read-out: Inhibition Ratio weight LLC); 19.3% with Lewis lung carcinoma (13.5 mg/kg/day × 10, lung, 21st day, read-out: Inhibition Ratio metastasis). Also, the inhibition in vivo at 27 mg/kg/day was 35.8% in the data set on Lewis lung carcinoma (27 mg/kg/day × 10 + Amputation, 21st day, read-out: Inhibition Ratio weight LLC); over 39.5% in the data set on Lewis lung carcinoma (27 mg/kg/day × 10 + Amputation, lung, 21st day, printed in parentheses, read-out: Inhibition Ratio metastasis); 7.1% with Lewis lung carcinoma (27 mg/kg/day × 10, 21st day, read-out: Inhibition Ratio weight LLC); 78.4% in the data set on Lewis lung carcinoma (27 mg/kg/day × 10, lung, 21st day, read-out: Inhibition Ratio metastasis). Further, the inhibition in vivo at 54 mg/kg/day was 34.9% in the data set with Lewis lung carcinoma (54 mg/kg/day × 10, 21st day, read-out: Inhibition Ratio weight LLC) and 83% in the data set with Lewis lung carcinoma (54 mg/kg/day × 10, lung, 21st day, read-out: Inhibition Ratio metastasis).
